# Key:
# Conditions in all cases: 72 h
# [1] = system: HepG2; assay: drug sensitivity score (DSS) for viability; higher = more toxic; extreme values may be limits of the assay
# [2] = system: Vero E6; assay: as above
# [3] = system: Calu-3; assay: as above
# [4] = system: Caco-2; assay: as above
# [5] = system: U2OS; assay: as above
# [6] = system: HepG2; assay: cell viability relative to DMSO; higher = less toxic
# [7] = system: Vero E6; assay: as above
# [8] = system: Calu-3; assay: as above
# [9] = system: Caco-2; assay: as above
# [10] = system: U2OS; assay: as above
# [11] = system: HepG2; assay: relative viability EC50 (midpoint between 100% and the lowest measured viability); higher = less toxic
# [12] = system: Vero E6; assay: as above
# [13] = system: Calu-3; assay: as above
# [14] = system: Caco-2; assay: as above
# [15] = system: U2OS; assay: as above
Compound,drug sensitivity score [1],drug sensitivity score [2],drug sensitivity score [3],drug sensitivity score [4],drug sensitivity score [5],cell viability ([6]; 1 nM),cell viability ([6]; 10 nM),cell viability ([6]; 100 nM),cell viability ([6]; 1000 nM),cell viability ([6]; 10000 nM),cell viability ([7]; 1 nM),cell viability ([7]; 10 nM),cell viability ([7]; 100 nM),cell viability ([7]; 1000 nM),cell viability ([7]; 10000 nM),cell viability ([8]; 1 nM),cell viability ([8]; 10 nM),cell viability ([8]; 100 nM),cell viability ([8]; 1000 nM),cell viability ([8]; 10000 nM),cell viability ([9]; 1 nM),cell viability ([9]; 10 nM),cell viability ([9]; 100 nM),cell viability ([9]; 1000 nM),cell viability ([9]; 10000 nM),cell viability ([10]; 1 nM),cell viability ([10]; 10 nM),cell viability ([10]; 100 nM),cell viability ([10]; 1000 nM),cell viability ([10]; 10000 nM),relative viability EC50 [11],relative viability EC50 [12],relative viability EC50 [13],relative viability EC50 [14],relative viability EC50 [15]
C[N+]12CCCCC1CCC(=C(c1cccs1)c1cccs1)C2 (stereo not given) [tiquizium],0,0,0,0,0,103%,86.9%,98.9%,93.7%,94%,106%,88.6%,98.3%,87%,100%,100%,102%,97.8%,111%,99%,89.3%,96.3%,89.7%,90.3%,100%,98.1%,99.2%,94.3%,103%,102%,> 10 µM,> 10 µM,> 10 µM,> 10 µM,> 10 µM
C[N+]1(C)CCC(=C(c2ccccc2)c2ccccc2)CC1 [diphemanil],0,0,0,0,0,113%,98.1%,108%,97.6%,110%,105%,108%,103%,99.9%,102%,95.3%,107%,110%,96.1%,102%,97.2%,100%,95.7%,101%,93.6%,101%,99.7%,95.5%,97.7%,97.4%,> 10 µM,> 10 µM,> 10 µM,> 10 µM,> 10 µM
C[C@@H]([C@H](O)c1ccc(O)cc1)N1CCC(Cc2ccccc2)CC1 (racemic) [ifenprodil],0.3,0,0.6,0,0,103%,99.5%,104%,92.8%,88.2%,101%,103%,102%,98.8%,97.6%,99.4%,96.5%,92%,91.8%,84.1%,96.8%,101%,96.1%,98%,89.8%,103%,101%,99.9%,102%,98.5%,> 10 µM,> 10 µM,> 10 µM,> 10 µM,> 10 µM
Nc1ncc(Cc2ccc(Br)cc2)s1,0,0,0,0,0,98%,88.6%,115%,96.3%,99.9%,99.9%,94%,100%,92.2%,107%,95.6%,91.8%,103%,94.3%,119%,97.3%,95.1%,85.2%,99.3%,96.7%,93.5%,102%,94.9%,101%,102%,> 10 µM,> 10 µM,> 10 µM,> 10 µM,> 10 µM
CCCCCCNC(=O)Nc1ccc(S(=O)(=O)Nc2ccc(CCNC[C@H](O)COc3ccc(O)cc3)cc2)cc1,0,0,0,0,0,95.6%,110%,92.1%,103%,107%,92.7%,95.8%,91%,96.2%,110%,105%,96.8%,93.5%,102%,88.3%,102%,82.7%,102%,102%,104%,106%,96.6%,101%,99.9%,103%,> 10 µM,> 10 µM,> 10 µM,> 10 µM,> 10 µM
CCCCCCCCCCCCCCCC(=O)OC[C@@H](NC(=O)C(Cl)Cl)[C@H](O)c1ccc([N+](=O)[O-])cc1 [chloramphenicol-palmitate],0.2,0,0,0,0,98.1%,101%,103%,92.4%,88.6%,107%,107%,102%,97.2%,99.3%,97.3%,95.6%,95.2%,97%,102%,111%,102%,99%,95.1%,95.3%,105%,99.6%,102%,104%,100%,> 10 µM,> 10 µM,> 10 µM,> 10 µM,> 10 µM
CCC(=O)NO [ZAMI-633],0.9,0.1,0,0,0,110%,97%,104%,90.6%,85.1%,110%,95%,109%,97.1%,89%,101%,102%,94.2%,93.6%,97.2%,100%,96.7%,93.4%,96.8%,127%,97.5%,97.9%,92.8%,93.3%,105%,> 10 µM,> 10 µM,> 10 µM,> 10 µM,> 10 µM
Cc1cccc(C)c1OCC(=O)N[C@@H](Cc1ccccc1)[C@@H](O)C[C@H](Cc1ccccc1)NC(=O)[C@H](C(C)C)N1CCCNC1=O [Lopinavir],0,0,0,0.3,0,101%,87.1%,103%,105%,95.4%,93.3%,100%,100%,100%,104%,95.4%,84.9%,92.7%,93.9%,89.2%,95%,101%,100%,101%,83.7%,99.5%,95.2%,103%,94.1%,96.5%,> 10 µM,> 10 µM,> 10 µM,> 10 µM,> 10 µM
CC(=O)N[C@H]1[C@@H](O)[C@H](O)[C@@H](CO)O[C@@H]1O [N-acetylmannosamine],0,0,0,0,0,108%,96.7%,110%,105%,100%,97%,95.9%,92.1%,92.8%,108%,106%,100%,94.7%,102%,111%,102%,99.6%,100%,107%,104%,95.6%,101%,105%,103%,105%,> 10 µM,> 10 µM,> 10 µM,> 10 µM,> 10 µM
Cc1ccccc1/N=N/c1ccc(/N=N/c2c(O)ccc3ccccc23)c(C)c1 [sudan-IV],2.2,0,0,0,0,96.3%,111%,104%,81.2%,92.7%,104%,100%,104%,110%,87.4%,98.2%,107%,96.6%,107%,95.2%,96.3%,119%,113%,120%,94.5%,97.8%,102%,93.3%,95.3%,90.5%,> 10 µM,> 10 µM,> 10 µM,> 10 µM,> 10 µM
O=NO [sodium-nitrite],0,0,0,0,0,105%,102%,97.4%,98%,101%,106%,113%,95.2%,103%,99.2%,94.3%,100%,102%,94.8%,91.8%,87.7%,93.5%,94%,92.3%,97.3%,95.4%,97.1%,100%,94.2%,97.4%,> 10 µM,> 10 µM,> 10 µM,> 10 µM,> 10 µM
NCC(CC(=O)O)c1ccccc1 (stereo not given) [fenigam],0,0,0,0,0,95.1%,97.2%,92.4%,106%,110%,100%,95.8%,97.6%,101%,111%,95.4%,97.6%,100%,97.4%,97.4%,93.3%,105%,101%,87.8%,112%,93.5%,91.1%,97.3%,95.4%,98.3%,> 10 µM,> 10 µM,> 10 µM,> 10 µM,> 10 µM
C#CCOC(=O)C1=CCCN(C)C1 [arecaidine-propargyl-ester],0,0,0,0,0,95.1%,95.5%,101%,102%,102%,97.4%,99%,95%,98.4%,107%,100%,103%,95.2%,100%,95.6%,91.4%,98.4%,94.4%,98%,103%,98%,93.2%,99.3%,102%,101%,> 10 µM,> 10 µM,> 10 µM,> 10 µM,> 10 µM
COc1cc2c(CCNC(C)=O)c[nH]c2cc1Cl [6-chloromelatonin],0,0,0,0,0,107%,97.2%,94.7%,90.5%,98.9%,97.8%,93.8%,96.2%,89.9%,102%,99.5%,96.5%,98.9%,105%,98.3%,96%,98.3%,92.7%,98.1%,91%,100%,101%,101%,101%,99.3%,> 10 µM,> 10 µM,> 10 µM,> 10 µM,> 10 µM

# Reference: the supplement of paper PMC13380429
